Laboratory results taken from patent publication US4963588A, “Use of ubenimex for treating myelodysplastic syndrome” (priority 1989, dated 1990).
Read-outs that look alike come from different tables or passages of the source.

Columns and labels:
Acute toxicity in mouse = settings: in vivo, Mouse (ICR)
[1] = in vivo
[2] = Toxicity, general statement; settings: acute toxicity table given for reference
[3] = background statement; cited from earlier work
tumor = settings: cf. Japanese Pat. Publication (A2) No. 9487/1985; cited from earlier work
Acute toxicity in rat = settings: in vivo, Rat (SD)
[4] = tested on: RAEB or RAEB-T patients (MDS); experiment: Oral administration of the ubenimex capsule to RAEB or RAEB-T (MDS) patients, response observed; assay type: in vivo; design: key to Response: CR: complete remission; GR: good result
aminopeptidase B = settings: cf. U.S.P. No. 4,189,604; cited from earlier work
Acute toxicity in beagle = settings: dog, in vivo, male, oral, * = maximum administration level
[5] = patient 1 (RAEB-T), 30mg/day oral
[6] = patient 2 (RAEB), 30mg/day oral
[7] = patient 3 (RAEB), 30mg/day oral
[8] = patient 4 (RAEB), 30mg/day oral
[9] = patient 5 (RAEB), 30mg/day oral
[10] = patient 6 (RAEB), 30mg/day oral

CC(C)C[C@H](NC(=O)[C@@H](O)[C@H](N)Cc1ccccc1)C(=O)O [ubenimex, N-[(2S, 3R)-3-amono-2-hydroxy-4-phenylbutyryl]-(L)-leucine]
LD50 (Acute toxicity in mouse; ip, female, intraperitoneal): 190 mg/kg
LD50 (Acute toxicity in mouse; ip, male, intraperitoneal): 190 mg/kg
LD50 (Acute toxicity in mouse; po, female, * = maximum administration level): > 4000 mg/kg
LD50 (Acute toxicity in mouse; po, male, * = maximum administration level): > 4000 mg/kg
LD50 (Acute toxicity in mouse; sc, female, subcutaneous): 1900 mg/kg
LD50 (Acute toxicity in mouse; sc, male, subcutaneous): 1300 mg/kg
Accumulated toxicity upon repeated administration [1]: low accumulated toxicity
Toxicity [2]: low toxicity
Toxicity [3]: low toxicity
Antitumor activities (tumor): has a antitumor activities
LD50 (Acute toxicity in rat; ip, first line, sex female, intraperitoneal): 900 mg/kg
LD50 (Acute toxicity in rat; ip, second line, female, intraperitoneal): 780 mg/kg
LD50 (Acute toxicity in rat; po, first line, sex female, * = maximum administration level): > 2000 mg/kg
LD50 (Acute toxicity in rat; po, second line, female, * = maximum administration level): > 2000 mg/kg
LD50 (Acute toxicity in rat; sc, first line, sex female, subcutaneous): 1900 mg/kg
LD50 (Acute toxicity in rat; sc, second line, female, subcutaneous): 2100 mg/kg
Effectiveness as a remedy for MDS ([4]; 30mg/day oral): highly effective
RAEB cases with complete remission ([4]; among six effective cases): three
RAEB cases with good responses ([4]; among six effective cases): two
RAEB-T cases with complete remission ([4]; among six effective cases): one
Effect on cytopenia ([4]; anemia, thrombocytopenia and neutropenia): improve cytopenia
Amount of transfusion to the patients ([4]; human, in vivo): reduced or sometimes become unnecessary
Effect on excess blast ([4]; human, in vivo): reduce excess blast
Effect on myelodysplasia ([4]; human, in vivo): improve myelodysplasia
Patients with good results ([4]; of seven RAEB or RAEB-T patients, 30mg/day oral): six
Days till response [4, 5]: 34 days
Response [4, 5]: CR
Peripheral blood Granulocytes No. ([4]; patient 1 (RAEB-T), 30mg/day oral, after treatment (BT 1.11)): 2.94e+09 L⁻¹
Peripheral blood Hemoglobin ([4]; patient 1 (RAEB-T), 30mg/day oral, after treatment (BT 10.5)): 13.6 g/dL
Bone marrow Blast ([4]; patient 1 (RAEB-T), 30mg/day oral, after treatment (BT 22.8)): 3.2%
Peripheral blood Platelets ([4]; patient 1 (RAEB-T), 30mg/day oral, after treatment (BT 350)): 3.72e+11 L⁻¹
Duration of response ([4]; patient 1 (RAEB-T), 30mg/day oral, observation continued): 8 week
Days till response [4, 6]: 28 days
Response [4, 6]: CR
Peripheral blood Granulocytes No. ([4]; patient 2 (RAEB), 30mg/day oral, after treatment (BT 0.62)): 2.44e+09 L⁻¹
Peripheral blood Hemoglobin ([4]; patient 2 (RAEB), 30mg/day oral, after treatment (BT 7.9)): 14.4 g/dL
Bone marrow Blast ([4]; patient 2 (RAEB), 30mg/day oral, after treatment (BT 13.2)): 5.2%
Peripheral blood Platelets ([4]; patient 2 (RAEB), 30mg/day oral, after treatment (BT 81)): 2.09e+11 L⁻¹
Duration of response ([4]; patient 2 (RAEB), 30mg/day oral, ubenimex administration suspended): 11 week
Days till response [4, 7]: 97 days
Response [4, 7]: CR
Peripheral blood Granulocytes No. ([4]; patient 3 (RAEB), 30mg/day oral, after treatment (BT 0.99)): 1.75e+09 L⁻¹
Bone marrow Blast ([4]; patient 3 (RAEB), 30mg/day oral, after treatment (BT 5.2)): 0.4%
Peripheral blood Hemoglobin ([4]; patient 3 (RAEB), 30mg/day oral, after treatment (BT 6.8)): 12.3 g/dL
Peripheral blood Platelets ([4]; patient 3 (RAEB), 30mg/day oral, after treatment (BT 12)): 9.6e+10 L⁻¹
Duration of response ([4]; patient 3 (RAEB), 30mg/day oral, observation continued): 21 week
Days till response [4, 8]: 175 days
Response [4, 8]: CR
Peripheral blood Granulocytes No. ([4]; patient 4 (RAEB), 30mg/day oral, after treatment (BT 2.92)): 2.35e+09 L⁻¹
Bone marrow Blast ([4]; patient 4 (RAEB), 30mg/day oral, after treatment (BT 6.0)): 2.0%
Peripheral blood Hemoglobin ([4]; patient 4 (RAEB), 30mg/day oral, after treatment (BT 7.6)): 11.0 g/dL
Peripheral blood Platelets ([4]; patient 4 (RAEB), 30mg/day oral, after treatment (BT 30)): 8.2e+10 L⁻¹
Duration of response ([4]; patient 4 (RAEB), 30mg/day oral, observation continued): 28 week
Days till response [4, 9]: 134 days
Response [4, 9]: GR
Peripheral blood Granulocytes No. ([4]; patient 5 (RAEB), 30mg/day oral, after treatment (BT 1.22)): 2.44e+09 L⁻¹
Peripheral blood Hemoglobin ([4]; patient 5 (RAEB), 30mg/day oral, after treatment (BT 8.5)): 8.7 g/dL
Peripheral blood Platelets ([4]; patient 5 (RAEB), 30mg/day oral, after treatment (BT 21)): 1.76e+11 L⁻¹
Duration of response ([4]; patient 5 (RAEB), 30mg/day oral, observation continued): 32 week
Days till response [4, 10]: 67 days
Response [4, 10]: GR
Peripheral blood Granulocytes No. ([4]; patient 6 (RAEB), 30mg/day oral, after treatment (BT 1.45)): 2.02e+09 L⁻¹
Peripheral blood Hemoglobin ([4]; patient 6 (RAEB), 30mg/day oral, after treatment (BT 10.9)): 12.2 g/dL
Peripheral blood Platelets ([4]; patient 6 (RAEB), 30mg/day oral, after treatment (BT 42)): 1.86e+11 L⁻¹
Duration of response ([4]; patient 6 (RAEB), 30mg/day oral, observation continued): 20 week
Inhibition of aminopeptidase B (aminopeptidase B): inhibits aminopeptidase B
LD50 (Acute toxicity in beagle): > 1200 mg/kg
